Laboratory results: patent US11571459B2, “Methods for treating cancer using PS-targeting antibodies with immuno-oncology agents” (ONCXERNA THERAPEUTICS, INC., priority 2017, dated 2023)

What was measured:
[1] = tested on: locally advanced or metastatic breast cancer; assay: Phase II bavituximab plus paclitaxel and carboplatin in breast cancer; conditions: with paclitaxel and carboplatin
From the text: This Phase II study utilized a Simon 2-stage design. […] The primary objective was to determine the overall response rate (ORR), defined as complete response (CR) plus partial response (PR), CR+PR. Secondary objectives included time to tumor progression, duration of response (DOR or DR), overall survival (OS) and safety.

[2] = irrespective of the presence of serum; cited from earlier work
hepatitis C virus (HCV) = assay: Phase Ib escalating repeat-dose study in chronic HCV; assay type: in vivo, human; conditions: for viral load: Phase Ib
Procedure: Bavituximab was first evaluated in Phase I, open-label, dose escalation studies and Phase Ib, open-label, escalating repeat-dose studies in patients chronically infected with hepatitis C virus (HCV). […] Doses of 0.1, 0.3, 1, 3 and 6 mg/kg were administered in Phase I (30 patients; successive cohorts of 6 patients), and doses of 0.3, 1, 3 and 6 mg/kg were administered in Phase Ib (24 patients; four cohorts of 6 patients).

HCV and HIV = assay: Phase Ib repeat-dose study in patients co-infected with chronic HCV and HIV; assay type: in vivo, human
Procedure: The primary objectives were to determine the safety, tolerability, PK profile, viral kinetics, MTD and/or MED. The study involved 16 scheduled visits over approximately 16 weeks. […] Dose escalation proceeded after all patients in the cohort had completed the first 4 weeks of dosing with no thrombotic events classified as serious adverse events (SAEs).
The median baseline HCV viral load was 6.76 log10 and the median baseline for HIV was 3.99 log10. Plasma viral loads of HCV and HIV were measured at specific time points during the study.

[3] = tested on: locally advanced or metastatic breast cancer; assay: Phase II bavituximab plus docetaxel in breast cancer; assay type: in vivo, human; conditions: with docetaxel
From the text: This trial was also a Phase II, multicenter trial utilizing a Simon 2-stage design. […] The primary objective was to determine the ORR (CR+PR). Secondary objectives included time to tumor progression, DOR, OS and safety.
All patients received one prior chemotherapy regimen.

[4] = Administration to rats (safety); assay type: in vivo; conditions: doses above 10 mg/kg
β2GPI = target: T1, β2GPI (Homo sapiens, UniProt P02749); assay: Antibody binding to β2GPI (domain mapping)
T1 sequence (P02749 20-345): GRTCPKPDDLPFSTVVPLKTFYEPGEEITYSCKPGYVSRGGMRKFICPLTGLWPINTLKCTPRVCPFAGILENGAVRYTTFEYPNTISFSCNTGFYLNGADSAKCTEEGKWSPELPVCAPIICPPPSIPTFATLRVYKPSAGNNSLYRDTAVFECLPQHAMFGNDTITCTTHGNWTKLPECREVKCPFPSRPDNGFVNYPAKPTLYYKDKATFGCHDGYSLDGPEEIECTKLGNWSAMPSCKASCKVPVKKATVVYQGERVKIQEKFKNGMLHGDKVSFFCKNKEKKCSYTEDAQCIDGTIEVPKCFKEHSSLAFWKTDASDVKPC
From the text: In summary, it was shown that the 3G4 antibody binds to β2GPI at domain II and that the lipid binding region of β2GPI domain V is required for co-binding of 3G4 (and ch3G4) and β2GPI to PS exposed on cells. […] Accordingly, antibody and β2GPI co-bind to PS exposed on the outer surfaces of membranes, such as occurs on activated endothelial cells, tumor vascular endothelial cells and tumor cells, as well as on virally infected cells.

[5] = Administration to monkeys (safety); assay type: in vivo
[6] = Further pharmacokinetic studies in over 120 patients with cancer or viral infections; assay type: in vivo, human
PS = conditions: in the presence of serum; cited from earlier work
[7] = Phase Ib study of bavituximab with gemcitabine, paclitaxel plus carboplatin or docetaxel: PK; assay type: in vivo, human; conditions: 3 mg/kg weekly with gemcitabine
[8] = tested on: previously untreated locally advanced or metastatic non-squamous NSCLC; assay: Phase II (PPHM 1001) paclitaxel/carboplatin with or without bavituximab; assay type: in vivo, human; conditions: bavituximab given with paclitaxel/carboplatin
[9] = tested on: advanced hepatocellular carcinoma (HCC); assay: Phase II bavituximab and sorafenib in HCC; assay type: in vivo, human
Procedure: A Phase II, single institution study of bavituximab and sorafenib in advanced hepatocellular carcinoma (HCC) was conducted. […] Secondary endpoints included overall survival (OS), disease specific survival, 4 month progression free survival, safety and response rate. The study accrued 38 patients.

[10] = tested on: previously untreated stage IV pancreatic cancer; assay: Phase II (PPHM 1002) gemcitabine with or without bavituximab; assay type: in vivo, human; conditions: with gemcitabine
Procedure: The primary objective was to compare the OS of patients among the treatment arms. Secondary objectives included comparing PFS, ORR, DR and safety.
Gemcitabine (1000 mg/m^2) was given on days 1, 8, and 15 of each 28-day cycle (4 weeks) until disease progression or unacceptable toxicities. A total of 70 patients were enrolled to the study. In general, the patient population had very extensive disease burden, which may have reduced the response in both arms.
The levels of pre-treatment functional β2GPI ranged from 82.5 to 343.2 μg/ml for all patients. For these 31 patients, the mean level of pre-treatment functional β2GPI (219.2 μg/ml) was consistent with the average reported in the literature.

[11] = functional β2GPI less than 200 μg/mL

bavituximab
median PFS [1]: 6.9 months | median duration of response (DOR) [1]: 3.7 months | CR ([1]; 46 patients): 10.9% | Grade 3 anemia ([1]; 46 patients): 10.9% | Grade 3 leukopenia ([1]; 46 patients): 23.9% | Grade 3 neutropenia ([1]; 46 patients): 19.6% | Grade 4 neutropenia ([1]; 46 patients): 26.1% | PR ([1]; 46 patients): 63.0% | objective response per RECIST ([1]; 46 patients): 73.9% | median OS ([1]; at study closure): 23.2 months | binding to neutral phospholipids PC, SM or PE [2]: no detectable binding | viral load (hepatitis C virus (HCV); 3 mg/kg, throughout treatment and follow-up): consistent decreases in HCV | viral load (hepatitis C virus (HCV); doses of 0.3, 1 and 6 mg/kg): small decreases in viral load | accumulation / time-dependent PK differences (hepatitis C virus (HCV); all dose levels, day 0 and day 10): no evidence of accumulation of bavituximab or time-dependent PK differences | accumulation / time-dependent PK differences (HCV and HIV; 0.3 to 6 mg/kg once weekly for 8 weeks): did not exhibit time-dependent PK differences or accumulation | maximum reduction in HCV and/or HIV viral load from baseline (HCV and HIV; several patients in each treatment group, all dose levels): ≥ 0.5 log10 | median DOR [3]: 6.1 months | median PFS [3]: 7.4 months | most common TEAEs of Grade ≥3 [3]: only fatigue, headache, back pain and hypertension were Grade ≥3 | CR ([3]; 46 patients): 10.9% | PR ([3]; 46 patients): 50.0% | objective response ([3]; 46 patients): 60.9% | median OS ([3]; final analysis): approximately 20.7 months | doses safely administered [4]: up to 100 mg/kg | β2GPI domain bound (β2GPI): bind to domain II of β2GPI | effect on β2GPI in the systemic circulation ([5]; 100 mg/kg): transiently decreased β2GPI in the systemic circulation | doses safely administered ([5]; doses above 10 mg/kg): up to 100 mg/kg | PK linearity ([6]; doses 0.1 to 6 mg/kg): linear single-dose and multiple-dose PK characteristics | time by which distribution phase is essentially complete ([6]; where observed): ≤ 6 h | binding to anionic phospholipids (PS, PI, PA, PG, CL) (PS): bind strongly to anionic phospholipids | accumulation (Cmax and AUC) [7]: no accumulation of bavituximab following multiple-dose administration | mOS [8, 11]: 14.2 months | mOS ([8]; functional β2GPI ≥200 μg/mL): 17.0 months | patients with increased infiltration of activated tumor-fighting T-cells (CD8) into the tumor microenvironment ([9]; after one cycle): Three of the six patients | anorexia, all grade ([9]; with sorafenib): 24% | diarrhea, all grade ([9]; with sorafenib): 32% | fatigue, all grade ([9]; with sorafenib): 26% | four month PFS ([9]; with sorafenib): 61% | median OS (mOS) ([9]; with sorafenib): 6.2 months | partial response ([9]; with sorafenib): Two patients achieved partial response | tolerability ([9]; with sorafenib): well tolerated | grade 4 or 5 adverse events ([9]; with sorafenib, 38 patients): no grade 4 or 5 adverse events recorded | mOS [10, 11]: 5.3 months | mOS ([10]; functional β2GPI ≥200 μg/mL): 7.4 months
